The text below walks through data of paper PMC8115384 (Cell, 2021).

In assay [1] the target is T1, F175Y/Y177F variant (YGF) of zebrafish α1 GlyR (Danio rerio, UniProt O93430, F183Y/Y185F).
T1 sequence (O93430 25-444 F183Y/Y185F): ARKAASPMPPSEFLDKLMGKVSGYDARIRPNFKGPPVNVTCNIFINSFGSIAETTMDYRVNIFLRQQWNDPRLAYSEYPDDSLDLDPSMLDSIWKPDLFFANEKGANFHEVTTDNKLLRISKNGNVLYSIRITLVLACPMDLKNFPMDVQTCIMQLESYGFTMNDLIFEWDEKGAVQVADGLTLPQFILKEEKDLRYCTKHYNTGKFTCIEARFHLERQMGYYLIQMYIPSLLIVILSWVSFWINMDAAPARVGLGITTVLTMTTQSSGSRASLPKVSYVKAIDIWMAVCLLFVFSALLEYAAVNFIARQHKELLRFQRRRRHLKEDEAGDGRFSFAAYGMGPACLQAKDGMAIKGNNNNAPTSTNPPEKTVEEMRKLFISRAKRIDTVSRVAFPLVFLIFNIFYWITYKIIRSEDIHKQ
The assay is described as follows: Whole cell dose-response, YGF mutant. Type of assay: cell-based. The conditions noted are these: HEK293A, ± SEM, n≥6 cells.

The target of assay [2] is T2, Full-length zebrafish α1 GlyR (Danio rerio, UniProt O93430).
T2 sequence (O93430 25-444): T1 sequence (O93430 25-444 F183Y/Y185F) with Y159F, F161Y
The experiment in a line: Whole cell dose-response, FL GlyR. Type of assay: cell-based.

In assay [3] the test system is GlyR Ser294 to cysteine mutant. The conditions noted are these: S294C vs wild type; ref Lynch et al., 2001; cited from earlier work.
The target of assay [4] is T2, Full-length zebrafish α1 GlyR. The experiment in a line: Macroscopic currents in outside-out patches, fast agonist application.
Assay [5] deals with T3, YYY mutant (F115Y/F175Y/F223Y) of GlyR (Danio rerio, UniProt O93430, F123Y/F183Y/F231Y).
T3 sequence (O93430 25-444 F123Y/F183Y/F231Y): T1 sequence (O93430 25-444 F183Y/Y185F) with F99Y, F161Y, F207Y
The assay is described as follows: Single-channel open probability, YYY mutant. Type of assay: cell-based, zebrafish. As to conditions: 100 mM GABA; similar Po in the YYY mutant as in the FL receptor.

Assay [6] deals with T4, YGF mutant of zebrafish α1 glycine receptor (Danio rerio, UniProt O93430, F183Y/Y185F).
T4 sequence (O93430 25-444 F183Y/Y185F): T1 sequence (O93430 25-444 F183Y/Y185F)
The experiment in a line: Ligand binding with 3H-strychnine by SPA, YGF mutant in SMA.

For assay [7], the target named is T1, F175Y/Y177F variant (YGF) of zebrafish α1 GlyR. The assay is described as follows: Cell-attached single-channel recording, cluster open probability, YGF mutant. It counts as cell-based. The conditions noted are these: HEK293A cells, single-channel clusters, 100 mM GABA.
Assay [8] addresses T5, FL receptor (full-length zebrafish α1 glycine receptor) (Danio rerio, UniProt O93430).
T5 sequence (O93430 25-444): T1 sequence (O93430 25-444 F183Y/Y185F) with Y159F, F161Y
The experiment in a line: Ligand binding with 3H-strychnine by SPA, FL receptor in SMA.

Numbering of substitutions follows the chain as printed. Where two headings read alike, the source gives them in different places.

With `NCC(=O)O` [glycine], the EC50 in assay [1] is 33 ± 3 µM; in assay [2] (FL GlyR, whole cell, HEK293A, -40 mV, ± SEM, n≥6 cells) it was 190 ± 20 µM. For the same compound, the “increase of glycine EC50 by mutation of Ser294 to cysteine” value in assay [3] is recorded as ~ 5 fold. Further, in assay [4] (10 mM glycine, 8 patches), the “current left at the end of the 1-s pulse, range over patches” value is given as 17–89%. In assay [4] (10 mM glycine, single outside-out patch of Figure S1A), the “current left at the end of the 1-s pulse, patch shown” value worked out at 17%. The “current left, % of peak, after 1 s application (desensitization), average” value in assay [4] (saturating (10 mM) glycine, outside-out patches, n=8 patches) was 57 ± 8%.
For `NCCCC(=O)O` [GABA, γ-amino butyric acid], the “agonist efficacy (Po) in YYY mutant compared with FL receptor” value in assay [5] was “remained a weak partial agonist”. The figures for the Ki in assay [6] and in assay [8] were 180 ± 70 µM and 1410 ± 940 µM, respectively. This compound also displayed a Po in assay [7] of 92 ± 2%. The same compound displayed an EC50 in assay [2] of 28400 ± 900 µM.
In the case of `NCCS(=O)(=O)O` [taurine], the Po in assay [7] is listed as 95 ± 5%. The compound also registered an EC50 in assay [2] of 1050 ± 80 µM.

Broadly, the EC50 is the concentration at which the effect is half-maximal. High values mean weaker potency, low ones greater potency. One may read the Ki as the equilibrium dissociation constant of an inhibitor or competing ligand from its target.
